The values below come from patent US20230181580A1, “TREATMENT OF PROLIFERATIVE DISEASES OF THE CNS” (AUCENTRA THERAPEUTICS PTY LTD, priority 2020, published 2023).

One data set addresses CDK4/D1 (Homo sapiens, UniProt P11802). In words: CDK kinase inhibition assay (radiometric / ADP Glo). It counts as biochemical. On the procedure: (§1) Eurofins Pharma Discovery or Reaction Biology Corporation Kinase Profiler services were used to measure inhibition of CDKs and other kinases by radiometric assay (RIA). Inhibition of CDK4/Cyclin D1, CDK6/Cyclin D3 and CDK9/T1 were also determined in-house using ADP Glo Kinase assays (Promega Corporation, Madison Wis., United States of America). Briefly, the kinase reaction for CDK4/Cyclin D1 and CDK6/Cyclin D3 was performed with kinase reaction buffer ([…] Tris base pH 7.5, 20 mM MgCl2, 0.4 mM DTT), 0.1 mg/ml BSA and RB-CTF substrate (retinoblastoma protein1 C-terminal fraction). For CDK9/CyclinT1, the kinase reaction was performed with standard assay buffer and Kinase Dilution Buffer and RBER-IRStide substrate. Serial dilutions of 1:3 were prepared for test compounds for 10 concentrations (from 10 μM to 0.5 nM). The kinase reactions were started by addition of ATP, incubated for 40 min at 37° C. and then stopped by adding 10 μL of ADP Glo reagent. After incubation at room temperature (RT) in the dark for 40 min, 20 μL of kinase detection reagent was added per well and incubated for 40 min. Luminescence was measured using an EnVision Multilabel plate reader (PerkinElmer, Buckinghamshire, United Kingdom). Positive and negative controls were performed in the presence and absence of CDK kinases, respectively. Half-maximal inhibition (IC50) values were calculated using a 4-parameter logistic non-linear regression model with Graphpad prism (Version 6.0). Apparent inhibition constants (Ki) values were calculated from Km (ATP) and IC50 values for the respective kinases.

A further data set has as its target CDK9/T1 (Homo sapiens, UniProt P50750). The data set is described as above. It counts as biochemical. On the procedure: as §1
In the next data set the target is CDK6/D3 (Homo sapiens, UniProt Q00534). Described as above. It counts as biochemical. On the procedure:
as §1

The next data set has as its target CDK1/B (Homo sapiens, UniProt P06493). The description is as above. It counts as biochemical. On the procedure:
as §1

The next data set deals with CDK2/A (Homo sapiens, UniProt P24941). The description is as above. It is filed as biochemical. On the procedure: as §1
In another data set the test system is Colo205. In words: MTT proliferation assay, colorectal. It is filed as cell-based. Particulars: Homo sapiens, COLO 205, 72 h, read-out: Antiproliferative activity GI50 Colo205. The text has this: (§2) Representative compounds from Example 1, were subjected to standard MTT (3-(4,5-dimethylthiazol-2-yl)-2,5-diphenyltetrazolium bromide) and resazurin assays on solid tumour cell lines (including GBM cell lines) and leukemia cell lines, respectively, as previously reported (Wang S et al., J Med Chem 47:1662-1675, 2004; and Diab S. et al. CheMedChem 9:962-972, 2014).
For orientation: Tetrazolium dyes change colour on reduction, which living cells bring about.

In the next data set the test system is A2780. In words: MTT proliferation assay, ovarian. It is filed as cell-based. Particulars: Homo sapiens, 72 h, read-out: Antiproliferative activity GI50 A2780.
Text: as §2

Data set [1] has as its system U87 GBM cells. Description: Orthotopic U87 GBM xenograft. It is filed as in vivo, NSG mice. On the procedure:
In vivo anti-tumour efficacy of compound 1 and compound 2 was also investigated in GBM orthotopic mouse xenograft models. For example, compound 2 was administered orally once daily for 21 days to NSG mice (n=8) (The Jackson Laboratory, Ben Harbor, Me., United States of America) orthotopically engrafted with the U87 GBM cells per each treatment cohort. TMZ was given orally once daily for 5 days and was used as a positive control. The disease burden was measured by a non-invasive bioluminescent whole-body imaging technique.

The test system of another data set is U87. Description: MTT proliferation assay, glioblastoma. Particulars: Homo sapiens, U-87 MG, 72 h, read-out: Antiproliferative activity GI50 U87. It counts as cell-based. On the procedure:
(§3) All three GBM cell lines used in this example, namely U87, U251 and T98G, were cultured in Eagle's Minimum Essential Medium (EMEM) with 10% fetal bovine serum in 75 cm^2 flasks at 37° C. and 5% CO2. All cell lines were confirmed to be mycoplasma-free prior to any experiment setup.
as §2

Another data set concerns T98G. Description: MTT proliferation assay, glioblastoma. It is filed as cell-based. Particulars: Homo sapiens, 72 h, read-out: Antiproliferative activity GI50 T98G. On the procedure: as §3, §2
A further data set relates to U251. Description: MTT proliferation assay, glioblastoma. Particulars: Homo sapiens, U-251, 72 h, read-out: Antiproliferative activity GI50 U251. It counts as cell-based. On the procedure: as §3, §2
Another data set deals with PANC1. In words: MTT proliferation assay, pancreas. Particulars: Homo sapiens, PANC-1, 72 h, read-out: Antiproliferative activity GI50 PANC1. It is filed as cell-based.
Text: as §2

A further data set has as its system MV4-11. Description: Resazurin proliferation assay, leukaemia cell line. It counts as cell-based. Particulars: Homo sapiens, 72 h, read-out: Antiproliferative activity GI50 MV4-11.
Text: as §2
On the technique in general: Alamar Blue is a resazurin reagent that responds to reducing activity.

Another data set concerns M229. Description: MTT proliferation assay, melanoma. It counts as cell-based. Particulars: 72 h, read-out: Antiproliferative activity GI50 M229.
Text: as §2

In the next data set the test system is H460. In words: MTT proliferation assay, lung. It counts as cell-based. Particulars: Homo sapiens, NCI-H460, 72 h, read-out: Antiproliferative activity GI50 H460.
Text: as §2

The subject of data set [2] is U87 GBM cells. Description: Subcutaneous U87 GBM xenograft, single agents. It counts as in vivo. The text has this: (§4) Compound 1 and compound 2 were also investigated for in vivo antitumour activity in subcutaneous xenograft models. Briefly, U87 GBM cells were harvested and resuspended in a 1:1 mixture of serum-free media and matrigel, and 5×10^6 cells injected subcutaneously into the rear flank of 5-6-week-old CD1 nu/nu female mice. When the mean tumour volume reached 150-200 mm^3, animals were randomised to treatment groups (n=10 per group) and treated orally with vehicle (0.5% carboxymethyl cellulose in water), compound 1 or compound 2 daily for 21 days with the doses shown in FIGS. 5A and 5B. Mice were observed daily for signs of toxicity and weight loss, and tumour volume measured every other day.

For another data set, the system named is U87 xenografted mice. Description: Subcutaneous U87 xenograft, compound 2 and TMZ study. It counts as in vivo. Particulars: 25 mg/kg PO daily, single agent and with TMZ.
Text: as §4
In another study, U87 xenografted mice (n=8 per group) were treated with: (1) vehicle, (2) compound 2 (25 mg/kg, PO, daily), (3 and 4) TMZ (5 mg/kg or 50 mg/kg, PO, 5 day/week), (5) pre-treatment with compound 2 (25 mg/kg, PO, daily ×10), followed by TMZ (5 mg/kg, PO, 5 day/week ×2), (6) pre-treatment with TMZ (5 mg/kg, PO, 5 day/week ×2) followed by compound 2 (25 mg/kg, PO, daily ×10), and (7) co-treatment with compound 2 and TMZ, respectively. All treatment groups were completed by day 21, which were followed by a 7-day drug holiday before the second cycle of treatment started from day 29 (FIG. 5B).

The subject of another data set is LNCap. Description: MTT proliferation assay, prostate. It is filed as cell-based. Particulars: Homo sapiens, 72 h, read-out: Antiproliferative activity GI50 LNCap.
Text: as §2

The subject of another data set is MB453. In words: MTT proliferation assay, breast. Particulars: 72 h, read-out: Antiproliferative activity GI50 MB453. It counts as cell-based.
Text: as §2

Another data set concerns the target CDK7/H (Homo sapiens, UniProt P50613). In words: CDK kinase inhibition assay (radiometric / ADP Glo). It is filed as biochemical. On the procedure:
as §1
Background: ADP-Glo turns the ADP formed in a reaction into a luminescent signal.

Chain of CDK4/D1 (P11802 whole entry): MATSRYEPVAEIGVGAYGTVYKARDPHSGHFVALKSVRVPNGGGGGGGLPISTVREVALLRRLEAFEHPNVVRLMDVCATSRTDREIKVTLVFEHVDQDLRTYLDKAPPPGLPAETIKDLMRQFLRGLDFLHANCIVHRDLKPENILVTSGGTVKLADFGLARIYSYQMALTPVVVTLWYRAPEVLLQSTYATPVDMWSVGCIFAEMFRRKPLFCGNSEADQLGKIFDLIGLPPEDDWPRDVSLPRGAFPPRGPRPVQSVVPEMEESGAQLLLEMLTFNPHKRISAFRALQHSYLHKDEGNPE
Chain of CDK4/D1 (P24385 whole entry partner): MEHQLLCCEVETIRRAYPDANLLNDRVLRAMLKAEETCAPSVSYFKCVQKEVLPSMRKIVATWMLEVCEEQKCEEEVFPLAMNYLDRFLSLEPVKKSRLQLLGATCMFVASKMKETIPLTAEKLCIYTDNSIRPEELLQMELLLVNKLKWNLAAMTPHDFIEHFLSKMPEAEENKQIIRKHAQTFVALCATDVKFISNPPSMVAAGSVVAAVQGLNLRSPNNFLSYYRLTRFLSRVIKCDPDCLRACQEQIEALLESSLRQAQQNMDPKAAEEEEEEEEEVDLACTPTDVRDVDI
Chain of CDK9/T1 (P50750 whole entry): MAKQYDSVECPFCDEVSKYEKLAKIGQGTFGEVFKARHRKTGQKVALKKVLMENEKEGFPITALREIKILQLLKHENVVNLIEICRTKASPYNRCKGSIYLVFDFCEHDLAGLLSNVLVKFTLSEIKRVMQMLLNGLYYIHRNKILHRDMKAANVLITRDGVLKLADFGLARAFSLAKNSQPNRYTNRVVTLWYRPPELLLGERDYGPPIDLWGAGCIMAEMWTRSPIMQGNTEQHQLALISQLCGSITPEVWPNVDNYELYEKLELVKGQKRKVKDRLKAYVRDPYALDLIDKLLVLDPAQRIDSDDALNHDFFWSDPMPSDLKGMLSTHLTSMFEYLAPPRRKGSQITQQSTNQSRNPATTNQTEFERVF
Chain of CDK9/T1 (O60563 whole entry partner): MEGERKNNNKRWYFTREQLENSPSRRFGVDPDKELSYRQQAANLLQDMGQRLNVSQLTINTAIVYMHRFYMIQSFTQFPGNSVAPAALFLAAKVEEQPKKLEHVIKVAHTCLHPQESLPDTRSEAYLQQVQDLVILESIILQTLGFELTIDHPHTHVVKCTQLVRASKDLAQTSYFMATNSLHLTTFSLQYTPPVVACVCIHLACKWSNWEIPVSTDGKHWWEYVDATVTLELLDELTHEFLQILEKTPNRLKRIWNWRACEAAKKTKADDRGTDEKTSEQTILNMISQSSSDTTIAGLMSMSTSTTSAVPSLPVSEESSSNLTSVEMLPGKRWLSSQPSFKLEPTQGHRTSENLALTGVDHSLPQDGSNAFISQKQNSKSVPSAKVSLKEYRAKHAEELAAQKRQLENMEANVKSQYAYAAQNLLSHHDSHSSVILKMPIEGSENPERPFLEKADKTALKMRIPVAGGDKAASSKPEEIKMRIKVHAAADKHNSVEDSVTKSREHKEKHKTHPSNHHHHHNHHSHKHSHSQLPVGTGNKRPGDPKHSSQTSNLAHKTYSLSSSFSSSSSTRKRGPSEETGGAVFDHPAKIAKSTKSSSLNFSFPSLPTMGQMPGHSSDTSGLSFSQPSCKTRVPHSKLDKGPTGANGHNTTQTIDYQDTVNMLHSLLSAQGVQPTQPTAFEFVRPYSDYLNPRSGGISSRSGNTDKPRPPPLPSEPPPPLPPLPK
Chain of CDK7/H (P50613 whole entry): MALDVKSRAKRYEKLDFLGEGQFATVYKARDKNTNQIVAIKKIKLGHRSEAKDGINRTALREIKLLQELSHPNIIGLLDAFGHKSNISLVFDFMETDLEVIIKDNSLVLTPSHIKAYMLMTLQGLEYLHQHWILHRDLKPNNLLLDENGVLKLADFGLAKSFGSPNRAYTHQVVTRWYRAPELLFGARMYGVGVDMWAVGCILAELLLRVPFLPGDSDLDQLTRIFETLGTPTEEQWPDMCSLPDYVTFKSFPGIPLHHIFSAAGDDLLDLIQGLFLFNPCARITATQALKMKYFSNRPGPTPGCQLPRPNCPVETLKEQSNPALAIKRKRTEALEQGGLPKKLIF
Chain of CDK7/H (P51946 whole entry partner): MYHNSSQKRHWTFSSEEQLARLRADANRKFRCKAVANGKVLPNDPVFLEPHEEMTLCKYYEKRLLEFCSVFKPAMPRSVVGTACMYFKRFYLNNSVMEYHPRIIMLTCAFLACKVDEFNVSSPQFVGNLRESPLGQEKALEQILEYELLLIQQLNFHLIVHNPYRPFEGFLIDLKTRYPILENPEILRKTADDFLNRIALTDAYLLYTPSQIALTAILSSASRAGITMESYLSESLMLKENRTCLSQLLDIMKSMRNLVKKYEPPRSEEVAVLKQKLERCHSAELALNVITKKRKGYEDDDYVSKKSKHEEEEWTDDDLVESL
Chain of CDK7/H (P51948 whole entry partner): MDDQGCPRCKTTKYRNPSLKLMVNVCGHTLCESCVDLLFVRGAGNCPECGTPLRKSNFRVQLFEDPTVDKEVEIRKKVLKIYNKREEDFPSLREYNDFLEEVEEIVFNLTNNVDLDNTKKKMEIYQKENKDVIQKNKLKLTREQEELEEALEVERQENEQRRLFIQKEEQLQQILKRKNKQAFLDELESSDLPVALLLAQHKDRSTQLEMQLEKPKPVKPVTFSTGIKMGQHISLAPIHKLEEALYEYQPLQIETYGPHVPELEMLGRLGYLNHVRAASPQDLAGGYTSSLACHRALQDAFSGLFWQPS
Chain of CDK6/D3 (Q00534 whole entry): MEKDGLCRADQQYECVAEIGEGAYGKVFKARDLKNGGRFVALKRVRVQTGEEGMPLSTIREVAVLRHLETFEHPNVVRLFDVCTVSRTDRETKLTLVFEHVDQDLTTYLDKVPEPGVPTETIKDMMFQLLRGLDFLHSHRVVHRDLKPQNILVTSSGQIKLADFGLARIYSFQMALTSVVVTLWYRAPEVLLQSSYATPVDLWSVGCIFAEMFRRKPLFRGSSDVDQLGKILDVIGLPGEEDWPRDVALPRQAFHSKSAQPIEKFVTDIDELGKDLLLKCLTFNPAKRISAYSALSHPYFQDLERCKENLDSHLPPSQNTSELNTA
Chain of CDK6/D3 (P30281 whole entry partner): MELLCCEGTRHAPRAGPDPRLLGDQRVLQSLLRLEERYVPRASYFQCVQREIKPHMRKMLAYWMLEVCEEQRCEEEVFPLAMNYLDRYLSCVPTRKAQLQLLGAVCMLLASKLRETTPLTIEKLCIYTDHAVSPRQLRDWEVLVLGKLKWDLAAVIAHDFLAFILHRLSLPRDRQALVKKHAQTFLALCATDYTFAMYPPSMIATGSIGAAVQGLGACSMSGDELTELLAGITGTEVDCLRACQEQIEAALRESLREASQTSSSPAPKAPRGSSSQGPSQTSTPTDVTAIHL
Chain of CDK1/B (P06493 whole entry): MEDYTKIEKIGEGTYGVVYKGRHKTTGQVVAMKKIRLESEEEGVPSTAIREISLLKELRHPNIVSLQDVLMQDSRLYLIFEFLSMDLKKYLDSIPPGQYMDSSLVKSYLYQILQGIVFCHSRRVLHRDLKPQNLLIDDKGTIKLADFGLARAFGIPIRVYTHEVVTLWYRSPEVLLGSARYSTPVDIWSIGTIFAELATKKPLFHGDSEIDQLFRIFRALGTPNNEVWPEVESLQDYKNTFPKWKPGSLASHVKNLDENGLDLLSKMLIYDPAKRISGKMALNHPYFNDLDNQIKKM
Chain of CDK1/B (P14635 whole entry partner): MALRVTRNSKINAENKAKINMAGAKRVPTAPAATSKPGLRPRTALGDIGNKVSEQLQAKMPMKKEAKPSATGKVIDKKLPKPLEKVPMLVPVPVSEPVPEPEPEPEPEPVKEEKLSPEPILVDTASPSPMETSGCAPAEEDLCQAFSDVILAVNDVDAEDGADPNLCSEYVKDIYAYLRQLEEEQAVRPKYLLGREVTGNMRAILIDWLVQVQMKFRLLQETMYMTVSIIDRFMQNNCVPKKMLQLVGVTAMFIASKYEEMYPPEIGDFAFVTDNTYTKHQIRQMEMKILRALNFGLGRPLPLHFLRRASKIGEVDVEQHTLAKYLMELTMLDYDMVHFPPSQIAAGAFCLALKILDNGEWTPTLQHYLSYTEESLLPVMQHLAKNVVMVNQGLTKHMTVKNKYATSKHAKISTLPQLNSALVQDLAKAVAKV

For `CCN1CCN(Cc2ccc(Nc3ncc(F)c(-c4sc(NC5CCCC5)nc4C)n3)nc2)CC1` [Compound 2, N-cyclopentyl-5-(2-((5-((4-ethylpiperazin-1-yl)methyl)pyridin-2-yl)amino)-5-fluoropyrimidin-4-yl)-4-methylthiazol-2-amine], the Ki was 0.2 nM at CDK4/D1; above 1000 nM on CDK9/T1; 3 nM on CDK6/D3; above 1000 nM at CDK1/B; 620 nM at CDK2/A. Besides, the 50% growth inhibitory concentration (GI50) in the data set with Colo205 was 1550 nM; with A2780, 40 nM; with U87, 2170 nM; in the data set with T98G, 4180 nM; in the data set on U251 it was 5090 nM; in the data set on PANC1, 1210 nM. The GI50 in the data set with MV4-11 amounted to 10 nM; in the data set on M229, 830 nM; in the data set with H460, 410 nM; with LNCap, 280 nM; with MB453, 620 nM. Also, in the data set with U87 GBM cells [1] (day 21, oral once daily for 21 days, vs vehicle, p<0.001), the “inhibition in tumour growth (TGI)” value was 81.4%. Besides, the “increase in life span ratio (ILS)” value with U87 GBM cells [1] (vs vehicle control, ILS=(DaysT−DaysC)/DaysC) is 154.8%. In the data set with U87 GBM cells [2] (day 21, oral daily for 21 days, vs vehicle, p<0.001), this compound gave a T/C of 6%. The “tumour growth compared to vehicle treatment” value in the data set with U87 GBM cells [2] (oral daily for 21 days) is on record as “markedly reduced tumour growth”. For the same compound, the toxicity result in the data set with U87 GBM cells [2] (oral daily for 21 days, observed daily for signs of toxicity and weight loss) is “without any overt toxicity”; in the data set with U87 xenografted mice, “without any overt toxicity”. In the data set on U87 xenografted mice (p<0.001 vs vehicle), the anti-tumour efficacy entry is “significant anti-tumour efficacy both as a single agent and in combination with TMZ”.
For `Cc1nc(NC2CCCC2)sc1-c1ccnc(Nc2ccc(N3CCNCC3)cn2)n1` [Compound 3, N-cyclopentyl-4-methyl-5-(2-((5-(piperazin-1-yl)pyridin-2-yl)amino)pyrimidin-4-yl)thiazol-2-amine], the Ki is 1 nM on CDK4/D1; 220 nM at CDK9/T1; above 1000 nM on CDK7/H; 34 nM on CDK6/D3; above 1000 nM on CDK1/B; above 1000 nM at CDK2/A. In addition, the GI50 in the data set with MV4-11 was determined as 20 nM; in the data set on MB453, 70 nM.
For `CCN1CCN(c2ccc(Nc3nccc(-c4sc(NC5CCCC5)nc4C)n3)nc2)CC1` [Compound 4, N-cyclopentyl-5-(2-((5-(4-ethylpiperazin-1-yl)pyridin-2-yl)amino)pyrimidin-4-yl)-4-methylthiazol-2-amine], the Ki was 2 nM on CDK4/D1; 141 nM on CDK9/T1; 11 nM on CDK6/D3; above 1000 nM on CDK1/B; 355 nM on CDK2/A. Further, the GI50 in the data set with MV4-11 turned out to be 10 nM; in the data set on MB453, 290 nM.
As for `CNc1nc(C)c(-c2nc(Nc3ccc(N4CCN(C(C)=O)CC4)cn3)ncc2C#N)s1` [Compound 5, 2-((5-(4-acetylpiperazin-1-yl)pyridin-2-yl)amino)-4-(4-methyl-2-(methylamino)thiazol-5-yl)pyrimidine-5-carbonitrile], the Ki on CDK4/D1 was 4 nM; at CDK9/T1 it was above 1000 nM; at CDK7/H, above 1000 nM; at CDK6/D3, 30 nM; at CDK1/B it was above 1000 nM; at CDK2/A it was above 1000 nM. The GI50 with MV4-11 was 170 nM; with MB453, 810 nM.
With `CCN1CCN(Cc2ccc(Nc3nccc(-c4sc(NC5CCCC5)nc4C)n3)nc2)CC1` [Compound 6, N-cyclopentyl-5-(2-((5-((4-ethylpiperazin-1-yl)methyl)pyridin-2-yl)amino)pyrimidin-4-yl)-4-methylthiazol-2-amine], the inhibitory constant (Ki) is 6 nM on CDK4/D1; above 1000 nM on CDK9/T1; 630 nM at CDK7/H; 9 nM at CDK6/D3; above 1000 nM at CDK1/B; 416 nM on CDK2/A. Further, the GI50 was determined as 4380 nM with Colo205, 20 nM with MV4-11 and 70 nM with MB453.
Turning to `CNc1nc(C)c(-c2nc(Nc3ccc(N4CCC(N)CC4)cn3)ncc2F)s1` [Compound 7, 5-(2-((5-(4-aminopiperidin-1-yl)pyridin-2-yl)amino)-5-fluoropyrimidin-4-yl)-N,4-dimethylthiazol-2-amine], the Ki at CDK4/D1 was 3 nM; on CDK9/T1, above 1000 nM; on CDK7/H, above 1000 nM; at CDK6/D3, 32 nM; at CDK1/B it was above 1000 nM; on CDK2/A it was 206 nM. Also, the GI50 was 80 nM with MV4-11 and 360 nM in the data set on MB453.
Regarding `Cc1nc(NC2CCCC2)sc1-c1ccnc(Nc2ccc(N3CCC(N)CC3)cn2)n1` [Compound 8, 5-(2-((5-(4-aminopiperidin-1-yl)pyridin-2-yl)amino)pyrimidin-4-yl)-N-cyclopentyl-4-methylthiazol-2-amine], the Ki at CDK4/D1 is 1 nM; at CDK9/T1 it was 508 nM; on CDK7/H, 282 nM; at CDK6/D3 it was 8 nM; at CDK1/B it was above 1000 nM; on CDK2/A, 278 nM. Further, the GI50 in the data set on MV4-11 was found to be 30 nM; in the data set with MB453, 100 nM.
With `Cc1nc(NC2CCCC2)sc1-c1nc(Nc2ccc(N3CCOCC3)cn2)ncc1F` [Compound 9, N-cyclopentyl-5-(5-fluoro-2-((5-morpholinopyridin-2-yl)amino)pyrimidin-4-yl)-4-methylthiazol-2-amine], the Ki was 6 nM on CDK4/D1; above 1000 nM on CDK9/T1; above 1000 nM on CDK7/H; 20 nM at CDK6/D3; above 1000 nM on CDK1/B; 104 nM on CDK2/A. The GI50 in the data set with MV4-11 is 290 nM; with MB453 it was 1450 nM.

For orientation: Ki means a dissociation constant, usually derived from enzyme kinetics or from competition with a known ligand. A high value points to weaker binding. What is called GI50 is the concentration giving 50% growth inhibition. The term T/C denotes the ratio of treated to control.
